Experimental data: patent US12077513B2, “Process route of compound of formula (IV), crystal form and preparation method therefor” (SHANDONG DANHONG PHARMACEUTICAL CO., LTD., priority 2018, dated 2024)

Assays:
VAP-1/SSAO cell = VAP-1/SSAO cell (Homo sapiens (Human), UniProt Q16853); experiment: VAP-1 cell activity assay (HUVEC or CHO cells transfected with VAP-1/pCDNA (3.1) plasmid, Amplex Red); format: cell-based; conditions: for Inhibitory activity against VAP-1/SSAO cells (conclusion in words): in vitro
Chain of VAP-1/SSAO cell (Q16853 whole entry): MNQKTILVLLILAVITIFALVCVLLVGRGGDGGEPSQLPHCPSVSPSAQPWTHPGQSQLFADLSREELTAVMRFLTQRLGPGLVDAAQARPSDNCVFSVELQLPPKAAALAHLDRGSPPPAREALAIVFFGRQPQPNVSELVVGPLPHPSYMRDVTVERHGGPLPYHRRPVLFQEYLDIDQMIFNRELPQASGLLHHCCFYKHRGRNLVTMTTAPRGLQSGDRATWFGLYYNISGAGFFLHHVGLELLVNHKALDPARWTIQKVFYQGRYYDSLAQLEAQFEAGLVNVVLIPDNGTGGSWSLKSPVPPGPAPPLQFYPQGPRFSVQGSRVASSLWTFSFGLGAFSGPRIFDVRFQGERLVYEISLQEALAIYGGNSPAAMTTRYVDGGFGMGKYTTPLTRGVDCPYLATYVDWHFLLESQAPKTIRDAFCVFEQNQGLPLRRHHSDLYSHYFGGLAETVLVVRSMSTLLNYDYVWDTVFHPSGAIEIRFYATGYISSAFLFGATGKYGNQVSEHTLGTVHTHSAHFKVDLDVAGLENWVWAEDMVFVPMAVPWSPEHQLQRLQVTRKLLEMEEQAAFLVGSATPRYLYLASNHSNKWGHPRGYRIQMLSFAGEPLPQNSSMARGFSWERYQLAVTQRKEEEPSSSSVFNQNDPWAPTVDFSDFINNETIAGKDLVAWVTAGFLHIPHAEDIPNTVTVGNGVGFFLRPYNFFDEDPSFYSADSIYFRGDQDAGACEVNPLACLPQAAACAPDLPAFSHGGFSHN
Procedure: Amplex® Red Monoamine Oxidase Kit (Invitrogen #A12214) was used to determine the inhibitory effect of the sample on VAP-1 enzyme activity.
The HUVEC or CHO cells were plated onto a 6-well plate at a density of 0.8M/well, placed in a 37° C., 5% CO2 incubator for 24 hours, and then transfected with Lipo2000 reagent and VAP-1/pCDNA (3.1) plasmid. The medium was changed after 5 h (Lipo2000 is toxic to cells). After 24 h, the cells digested and plated into a 384-well plate at a density of 25 μl, 10000 cells/well, 6-7 h, and the cell medium was changed to the medium without FBS and the cell plate was placed in a 37° C. 5% CO2 incubator overnight.
• 1) Compound dilution: 4-fold serial dilution with 100% DMSO and diluted at 10 points. The initial concentration of the test compound was 0.5 mM (final concentration was […]); ECHO was used to transfer 100 nL of the compound solution to a 384-well cell detection plate. Negative control well: 100 nL DMSO; background control well: 100 nL DMSO+25 μL medium. • 2) Reaction was kept for 30 minutes at room temperature and protected from light. • 3) Amplex Red reagent+HRP+benzylamine substrate working solution preparation: • Amplex Red reagent+HRP+benzylamine substrate working solution (200 μM Amplex Red reagent+1 U/mL HRP+1 mM benzylamine): 45 μL of 20 mM Amplex Red reagent mother liquor, 22.5 μL of 200 U/mL horseradish peroxidase (HRP) mother liquor and 45 μL of 100 mM benzylamine were added to 4.3875 mL of 1× reaction buffer. • 4) After 30 minutes, 25 μL of the substrate working solution was added to a 384-well plate. […]

[1] = target: Human recombinant VAP-1/SSAO enzyme (Homo sapiens (Human), UniProt Q16853); experiment: Human VAP-1 enzyme activity assay (Amplex Red Monoamine Oxidase Kit); format: biochemical; conditions: for Inhibitory activity against human recombinant VAP-1/SSAO enzyme (conclusion in words): in vitro
Chain of Human recombinant VAP-1/SSAO enzyme (Q16853 whole entry): as above
Procedure: Human VAP-1 Enzyme Activity Assay:
Amplex® Red Monoamine Oxidase Kit (Invitrogen #A12214) was used to determine the inhibitory effects of the sample on VAP-1 enzyme activity. 100 nL Test compound (the solvent was DMSO) that had been gradiently diluted was added to a 384-well plate. 25 μL 10 nM VAP-1 enzyme solution was added, and the solution was incubated at room temperature for 30 minutes. The substrate mixture which had been added […] (200 μM Amplex Red, 1 U/mL HRP, 1 mM Benzylamine) was incubated at room temperature for 60 minutes. After the incubation, the fluorescence signal was read with a microplate reader Envision (excitation light wavelength 530-560 nm, emission light wavelength 590 nm). The fluorescence signal value after removing the background signal was analyzed with Prism software. The IC50 of the sample to the VAP-1 enzyme was calculated.

[2] = Solid stability test, crystal form characterized by XRPD; format: physicochemical
Procedure: An electronic balance was used to accurately weigh 60 mg sample of crystal form B of compound (IV) (3 samples in parallel for each stability test condition). The samples were placed in a dry and clean 5 mL beaker and spread into a thin layer. The aluminum foil was pierced with holes and placed on the beaker, fixed with rubber bands. The beaker was placed in tbc environment of various stability test conditions and remained for sampling at investigation time. The samples were investigated at 60° C. (5 days, 10 days), 25° C./92.5% RH (5 days, 10 days), 40° C./75% RH (one month, two months, three months), 60° C./75% RH (one month, two months) and light (10 days) conditions. X-ray powder diffraction (XRPD) was used to characterize the solid under various conditions.

[3] = listed as crystal form B of the compound of formula (IV)

With `CC(C)n1nc(-c2ccc(OC/C(=C/F)CN)cc2)nc1C1CC1` the IC50 (VAP-1/SSAO cell; VAP-1 transfected HUVEC or CHO cells, read-out: VAP-1/SSAO cell activity assay test IC50) was 2.2 ± 1.49 nM, the “Inhibitory activity against VAP-1/SSAO cells (conclusion in words)” value (VAP-1/SSAO cell; [3]) was “strong inhibitory activity” and the IC50 ([1]; 30 min preincubation, benzylamine substrate, read-out: Human recombinant VAP-1/SSAO enzyme inhibitory activity IC50) was 0.71 ± 0.21 nM. The “Inhibitory activity against human recombinant VAP-1/SSAO enzyme (conclusion in words)” value [1, 3] was “strong inhibitory activity”.
With `CC(C)n1nc(-c2ccc(OC/C(=C/F)CN)cc2)nc1C1CC1` [Compound of formula (IV)] the “Inhibitory activity against VAP-1/SSAO cells (conclusion in words)” value (VAP-1/SSAO cell) was “strong inhibitory activity” and the “Inhibitory activity against human recombinant VAP-1/SSAO enzyme (conclusion in words)” value [1] was “strong inhibitory activity”.
In the case of `CC(C)n1nc(-c2ccc(OC/C(=C/F)CN)cc2)nc1C1CC1` [Crystal form A], the “Stability (general statement in words)” value [2] is reported as “good stability”.
